Article PMC5274716, “Phosphorylation of Staphylococcus aureus Protein-Tyrosine Kinase Affects the Function of Glucokinase and Biofilm Formation” (Iranian Biomedical Journal, 2017)

Molecular target: T1, Phosphorylated rglkA (Staphylococcus aureus, UniProt H6UH58)
T1 construct: gene glcK; recombinant from clone glkA1, nickel-column purified (His tag implied); phosphorylated in vitro by S. aureus rBYK (tyrosine; site not determined)
Assay: coupled glucose-6-phosphate dehydrogenase assay, […] nm; Hanes-Woolf plot
Format: biochemical
Conditions: ATP, 0.5 mM MgCl2, NADP, 60 mM Tris-HCl pH 7.5, 37 °C; enzyme phosphorylated by BYK

T1 sequence (H6UH58 entry or part of it): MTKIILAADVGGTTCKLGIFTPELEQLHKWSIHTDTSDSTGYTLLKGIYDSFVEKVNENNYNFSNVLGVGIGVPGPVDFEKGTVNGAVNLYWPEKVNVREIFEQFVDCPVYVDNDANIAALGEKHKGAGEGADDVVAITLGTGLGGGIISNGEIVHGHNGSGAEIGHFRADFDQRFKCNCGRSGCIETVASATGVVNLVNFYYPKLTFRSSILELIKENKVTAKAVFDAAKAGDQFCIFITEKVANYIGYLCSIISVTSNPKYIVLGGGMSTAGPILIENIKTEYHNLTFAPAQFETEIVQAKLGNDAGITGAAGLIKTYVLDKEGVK

OC[C@H]1OC(O)[C@H](O)[C@@H](O)[C@@H]1O (stereo partly shown) [glucose]
Km: 5.18 ± 0.5 mM
